These results are taken from ChEMBL document CHEMBL1132162, “Microanalysis of a selective potent anti-Helicobacter pylori compound in a Brazilian medicinal plant, Myroxylon peruiferum and the activity of analogues” (1999).

Converted amounts (≈) assume the structure as drawn. The source made the active and inactive calls. The rule behind the calls is not given here. A value given as a limit tells only on which side of the number the result lay.

The test system of one assay is Helicobacter pylori. Description: Anti-bacterial activity against Helicobacter pylori. Type of assay: functional.
The test system of another assay is Micrococcus luteus. Description: Anti-microbial activity against gram-positive bacteria Micrococcus lutea at 625 ug/mL concentration; Inactive. Type of assay: functional, organism-based.
The subject of another assay is Saccharomyces cerevisiae. Description: Anti-microbial activity against yeast Saccharomyces cerevisiae at 625 ug/mL concentration; Inactive. In kind it is functional, organism-based.
The test system of the next assay is Pseudomonas aeruginosa. Description: Anti-microbial activity against gram-negative bacteria Pseudomonas aeruginosa at 625 ug/mL concentration; Inactive. In kind it is functional, organism-based.
For the next assay, the system named is Candida albicans. Put plainly: Anti-microbial activity against yeast candida albicans at 625 ug/mL concentration; Inactive. Type of assay: functional, organism-based.
The test system of a further assay is Bacteroides fragilis. Description: Anti-microbial activity against gram-positive bacteria Bacteroides fragilis at 625 ug/mL concentration; Inactive. Type of assay: functional, organism-based.
In a further assay the test system is Escherichia coli. Put plainly: Anti-microbial activity against gram-negative bacteria Escherichia coli at 625 ug/mL concentration; Inactive. In kind it is functional, organism-based.
A further assay concerns Bacillus subtilis. Description: Anti-microbial activity against gram-positive bacteria Bacillus subtilis at 625 ug/mL concentration; Inactive. Type of assay: functional, organism-based.

`COc1ccc(CC(=O)c2ccc(OC)cc2)cc1`: in the assay on Helicobacter pylori, the MIC was > 20 mg/L.
Still for that read-out and setting: to `COc1ccc(C)cc1OC` belongs > 20 mg/L; to `COc1ccc2c(c1)OCC(c1ccc(OC)c(OC)c1)C2=O` (stereo not given), > 20 mg/L.
Same read-out and setting: to `COc1ccc2c(c1)OC=C(c1ccc(OC)c(OC)c1)[C@H]2O` belongs 16 mg/L (≈ 50.9 µM); to `COc1ccc2c(=O)cc(-c3ccc(OC)c(OC)c3)oc2c1` [7,3',4'-Trimethoxyflavone], > 20 mg/L; to `CCOc1ccc2c(=O)c(-c3ccc(OCC)c(OCC)c3)coc2c1`, 18 mg/L (≈ 50.8 µM).
With `COc1ccc2c(c1)OC=C(c1ccc(OC)c(OC)c1)[C@@H]2O`, the MIC in the assay on Helicobacter pylori was 16 mg/L (≈ 50.9 µM).
Regarding `COc1ccc2c(=O)c(-c3ccc(OC)c(OC)c3)coc2c1`, the outcome with Micrococcus luteus, in the assay with Saccharomyces cerevisiae, in the assay on Pseudomonas aeruginosa, with Candida albicans, in the assay with Bacteroides fragilis and in the assay on Escherichia coli was inactive. The outcome in the assay on Bacillus subtilis was inactive. Moreover, 7.8 mg/L (≈ 25 µM) was the least that counted as inhibitory in the assay with Helicobacter pylori (MIC).
Consider `COc1ccc(-c2coc3cc(OC)ccc3c2=O)cc1`, for which the MIC in the assay with Helicobacter pylori is > 20 mg/L.
As to `O=c1c(-c2ccc(O)c(O)c2)coc2cc(O)ccc12`, in the assay on Helicobacter pylori, the MIC was > 20 mg/L.
Same read-out and setting: to `COc1ccc(-c2coc3cc(OC)c(OC)cc3c2=O)cc1` belongs > 20 mg/L; to `COc1ccc(-c2coc3cc(OC)cc(OC)c3c2=O)cc1` [BIOCHANIN A, DIMETHYL ETHER], > 20 mg/L.
In the case of `O=c1ccoc2ccccc12` [CHROMONE], in the assay with Helicobacter pylori, the MIC is > 20 mg/L.
